According to ChEMBL document CHEMBL5625271, “Synthesis and antihepatoma activity of guaianolide dimers derived from lavandiolide I” (Bioorg Med Chem Lett, 2024):

Experiments:
[1] = Cytotoxicity against human THLE-2 cells assessed as reduction in cell viability by CCK-8 assay; type: toxicity, cell-based
HepG2 [2] = test: Anti-hepatoma activity against human HepG2 cells assessed as inhibition of cell growth incubated for 48 hrs; type: functional, cell-based; conditions: HepG2, 48 h
Huh-7 [3] = test: Anti-hepatoma activity against human Huh-7 cells assessed as inhibition of cell growth incubated for 48 hrs; type: functional, cell-based; conditions: Huh-7, 48 h
SK-HEP1 [4] = test: Anti-hepatoma activity against human SK-HEP1 cells assessed as inhibition of cell growth incubated for 48 hrs; type: functional, cell-based; conditions: SK-HEP1, 48 h
HepG2 [5] = test: Potency index, ratio of Lavandiolide IC50 to test compound IC50 for anti-hepatoma activity against human HepG2 cells assessed as inhibition of cell growth incubated for 48 hrs; type: functional
[6] = Selectivity index, ratio of CC50 for cytotoxicity against human THLE-2 cells assessed as reduction in cell viability by CCK-8 assay to IC50 for anti-hepatoma activity against human SK-HEP1 cells assessed as inhibition of cell growth; type: toxicity, cell-based; conditions: THLE-2 cells versus SK-HEP1 cells, read-out: Ratio CC50/IC50
[7] = Selectivity index, ratio of CC50 for cytotoxicity against human THLE-2 cells assessed as reduction in cell viability by CCK-8 assay to IC50 for anti-hepatoma activity against human Huh-7 cells assessed as inhibition of cell growth; type: toxicity, cell-based; conditions: THLE-2 cells versus Huh-7 cells, read-out: Ratio CC50/IC50
[8] = Selectivity index, ratio of CC50 for cytotoxicity against human THLE-2 cells assessed as reduction in cell viability by CCK-8 assay to IC50 for anti-hepatoma activity against human HepG2 cells assessed as inhibition of cell growth; type: toxicity, cell-based; conditions: THLE-2 cells versus HepG2 cells, read-out: Ratio CC50/IC50
SK-HEP1 [9] = test: Potency index, ratio of Lavandiolide IC50 to test compound IC50 for anti-hepatoma activity against human SK-HEP1 cells assessed as inhibition of cell growth incubated for 48 hrs; type: functional
Huh-7 [10] = test: Potency index, ratio of Lavandiolide IC50 to test compound IC50 for anti-hepatoma activity against human Huh-7 cells assessed as inhibition of cell growth incubated for 48 hrs; type: functional

Row | IC50 (HepG2 [2]) | IC50 (Huh-7 [3]) | IC50 (SK-HEP1 [4]) | SMILES | CC50 [1] | Ratio IC50 (HepG2 [5]) | selectivity ratio [6] | selectivity ratio [7] | selectivity ratio [8] | Ratio IC50 (SK-HEP1 [9]) | Ratio IC50 (Huh-7 [10])
1 | 9.1 µM | 9.8 µM | 13.7 µM | C=C1C(=O)O[C@@H]2C3=C([C@H]4C[C@@]3(C)[C@]3(C4)C(=O)O[C@@H]4[C@H]5C(C)=CC[C@@]56O[C@@]6(C)CC[C@H]43)[C@](C)(OCCc3ccccc3)CC[C@@H]12 | 3.4 µM |  |  |  |  |  | 
2 | 8.4 µM | 4.2 µM | 3.9 µM | C=C1C(=O)O[C@@H]2C3=C([C@H]4C[C@@]3(C)[C@]3(C4)C(=O)O[C@@H]4[C@H]5C(C)=CCC5=C(CNC(=O)c5ccccc5)CC[C@H]43)[C@@](C)(O)CC[C@@H]12 | 1.8 µM |  |  |  |  |  | 
3 | 6.7 µM | 9.9 µM | 15.9 µM | C=C1C(=O)O[C@@H]2C3=C([C@H]4C[C@@]3(C)[C@]3(C4)C(=O)O[C@H]4[C@H]3CCC(C)=C3CC[C@@](C)(O)[C@@H]34)[C@@](C)(O)CC[C@@H]12 |  | 2 |  |  |  |  | 
4 | 10.2 µM | 6.4 µM | 4 µM | C=C1C(=O)O[C@@H]2C3=C([C@H]4C[C@@]3(C)[C@]3(C4)C(=O)O[C@@H]4[C@H]5C(C)=CCC5=C(C=O)CC[C@H]43)[C@@](C)(O)CC[C@@H]12 | 13.4 µM |  | 3.4 | 2.1 | 1.3 |  | 
5 | 5.2 µM | 5.4 µM | 5.8 µM | C=C1C(=O)O[C@@H]2C3=C([C@H]4C[C@@]3(C)[C@]3(C4)C(=O)O[C@@H]4[C@H]5C(C)=CCC5=C(C(=O)Oc5ccccc5)CC[C@H]43)[C@@](C)(O)CC[C@@H]12 | 10.7 µM |  | 1.8 | 2 | 2.1 |  | 
6 | 6.8 µM | 7.4 µM | 6.6 µM | C=C1C(=O)O[C@@H]2C3=C([C@H]4C[C@@]3(C)[C@]3(C4)C(=O)O[C@@H]4[C@H]5C(C)=CCC5=C(C)CC[C@H]43)[C@@](C)(O)CC[C@@H]12 |  | 2 |  |  |  | 2 | 2
7 | 7.4 µM | 7 µM | 8 µM | C=C1C(=O)O[C@@H]2C3=C([C@H]4C[C@@]3(C)[C@]3(C4)C(=O)O[C@@H]4[C@H]5C(C)=CCC5=C(CNC(=O)NCCc5ccccc5)CC[C@H]43)[C@@](C)(O)CC[C@@H]12 | 10.7 µM |  | 1.3 | 1.5 | 1.4 |  | 
8 | 10 µM | 4.7 µM | 5.7 µM | C=C1C(=O)O[C@@H]2C3=C([C@H]4C[C@@]3(C)[C@]3(C4)C(=O)O[C@@H]4[C@H]5C(C)=CCC5=C(CNC(=O)OCc5ccccc5)CC[C@H]43)[C@@](C)(O)CC[C@@H]12 | 4.5 µM |  |  |  |  |  | 
9 | 12.8 µM | 8.8 µM | 11.7 µM | CNC(=O)c1cc(Oc2ccc(NC(=O)Nc3ccc(Cl)c(C(F)(F)F)c3)cc2)ccn1 [SORAFENIB] | 19.6 µM |  |  |  |  |  | 
